Measurements reported in patent US20050176655A1, “Novel macrolide derivatives havaing effect of potentiating antifungal activity” (priority 2002, published 2005).

Columns and labels:
Assay in all cases: Paper disk method, enhancing action for activities of azole antifungal agents
Assay type in all cases: cell-based
[1] = tested on: Aspergillus niger ATCC 6275; details: 48 hours; for Inhibition activity (inhibition ring mm) A. niger ATCC 6275 GYF / Transparency of the inhibition ring A. niger ATCC 6275 GYF: fluconazole 10 μg/ml; for Inhibition activity (inhibition ring mm) A. niger ATCC 6275 GYM / Transparency of the inhibition ring A. niger ATCC 6275 GYM: miconazole 0.1 μg/ml
Method in brief: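 Paper-disk assay on A. niger ATCC 6275 spores (0.2%) seeded on GY agar pH 6.0. After 48 h, inhibition-zone diameter recorded in mm and transparency graded A (transparent) to E (opaque).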

[2] = tested on: Candida albicans ATCC 64548; details: 24 hours; for Inhibition activity (inhibition ring mm) C. albicans ATCC 64548 GYF / Transparency of the inhibition ring C. albicans ATCC 64548 GYF: fluconazole 0.5 μg/ml; for Inhibition activity (inhibition ring mm) C. albicans ATCC 64548 GYM / Transparency of the inhibition ring C. albicans ATCC 64548 GYM: miconazole 0.03 μg/ml
Method in brief: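 GY agar (pH 6.0) seeded with C. albicans ATCC 64548 precultured in Waksman broth at 27° C for 40 hours, supplemented with sub-growth-inhibitory miconazole 0.03 μg/ml or fluconazole 0.5 μg/ml. Paper disk method; inhibition-zone diameter (mm) read after 24 hours, transparency graded A–E.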

[3] = tested on: fluconazole resistant Candida albicans ATCC 64550; details: 24 hours; for Inhibition activity (inhibition ring mm) C. albicans ATCC 64550 GYF / Transparency of the inhibition ring C. albicans ATCC 64550 GYF: fluconazole 30 μg/ml; for Inhibition activity (inhibition ring mm) C. albicans ATCC 64550 GYM / Transparency of the inhibition ring C. albicans ATCC 64550 GYM: miconazole 0.15 μg/ml
Method in brief: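 Paper disk assay on GY agar (pH 6.0) seeded with Waksman-broth-grown C. albicans ATCC 64550 (0.1% inoculum). Medium was supplemented with sub-growth-inhibitory miconazole 0.15 μg/ml or fluconazole 30 μg/ml. After 24 h, inhibition-zone diameter was measured in mm and transparency graded A–E (A most transparent, E opaque).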

[4] = 50 μg/8 mm disk, GY medium (control, no azole)

Row | Structure (SMILES) | Inhibition activity (inhibition ring mm) A. niger ATCC 6275 GYF ([1]; 10 μg/8 mm disk) [mm] | Transparency of the inhibition ring A. niger ATCC 6275 GYF ([1]; 10 μg/8 mm disk) | Inhibition activity (inhibition ring mm) A. niger ATCC 6275 GYM ([1]; 10 μg/8 mm disk) [mm] | Transparency of the inhibition ring A. niger ATCC 6275 GYM ([1]; 10 μg/8 mm disk) | Inhibition activity (inhibition ring mm) A. niger ATCC 6275 GYF ([1]; 50 μg/8 mm disk) [mm] | Transparency of the inhibition ring A. niger ATCC 6275 GYF ([1]; 50 μg/8 mm disk) | Inhibition activity (inhibition ring mm) A. niger ATCC 6275 GYM ([1]; 50 μg/8 mm disk) [mm] | Transparency of the inhibition ring A. niger ATCC 6275 GYM ([1]; 50 μg/8 mm disk) | Inhibition activity (inhibition ring mm) C. albicans ATCC 64548 GYM ([2]; 10 μg/8 mm disk) [mm] | Transparency of the inhibition ring C. albicans ATCC 64548 GYM ([2]; 10 μg/8 mm disk) | Inhibition activity (inhibition ring mm) C. albicans ATCC 64548 GYF ([2]; 50 μg/8 mm disk) [mm] | Transparency of the inhibition ring C. albicans ATCC 64548 GYF ([2]; 50 μg/8 mm disk) | Inhibition activity (inhibition ring mm) C. albicans ATCC 64548 GYM ([2]; 50 μg/8 mm disk) [mm] | Transparency of the inhibition ring C. albicans ATCC 64548 GYM ([2]; 50 μg/8 mm disk) | Inhibition activity (inhibition ring mm) C. albicans ATCC 64550 GYF ([3]; 10 μg/8 mm disk) [mm] | Transparency of the inhibition ring C. albicans ATCC 64550 GYF ([3]; 10 μg/8 mm disk) | Inhibition activity (inhibition ring mm) C. albicans ATCC 64550 GYF ([3]; 50 μg/8 mm disk) [mm] | Transparency of the inhibition ring C. albicans ATCC 64550 GYF ([3]; 50 μg/8 mm disk) | Inhibition activity (inhibition ring mm) C. albicans ATCC 64550 GYM ([3]; 50 μg/8 mm disk) [mm] | Transparency of the inhibition ring C. albicans ATCC 64550 GYM ([3]; 50 μg/8 mm disk) | further results
1 | CCCCCC(=O)OC1C(C)OC(OC2C(C)C(=O)OC(C(C)(O)C(CC)OC(=O)CCCCC)C(C)C3=C(C)CC(C)(O3)C(OC3OC(C)CC(N(C)C)C3OC(C)=O)C2C)CC1(C)OC (stereo not shown) [Compound 772, 2′-O-acetyl-4″,13-Di-O-hexanoyl-8,9-Anhydro-pseudoerythromycin A 6,9-hemiketal] | 10 | D (Growth of test organism was inhibited 35% or more and 55% or less.) | 12 | E (Growth of test organism was inhibited 35% or less.) | 10 | D (Growth of test organism was inhibited 35% or more and 55% or less.) | 13 | A (Growth of test organism was inhibited 95% or more.) | 14 | B (Growth of test organism was inhibited 75% of more and 95% or less.) | 10 | D (Growth of test organism was inhibited 35% or more and 55% or less.) | 12 | B (Growth of test organism was inhibited 75% of more and 95% or less.) | 11 | E (Growth of test organism was inhibited 35% or less.) | 14 | B (Growth of test organism was inhibited 75% of more and 95% or less.) | 12 | A (Growth of test organism was inhibited 95% or more.) | Inhibition activity (inhibition ring mm) A. niger ATCC 6275 GY [1, 4]: 12 mm; Transparency of the inhibition ring A. niger ATCC 6275 GY [1, 4]: E (Growth of test organism was inhibited 35% or less.); Inhibition activity (inhibition ring mm) C. albicans ATCC 64548 GYF ([2]; 10 μg/8 mm disk): 9 mm; Transparency of the inhibition ring C. albicans ATCC 64548 GYF ([2]; 10 μg/8 mm disk): D (Growth of test organism was inhibited 35% or more and 55% or less.)
2 | CCC(OC(=O)c1ccccc1)C(C)(O)C1OC(=O)C(C)C(OC2CC(C)(OC)C(OC(=O)c3ccccc3)C(C)O2)C(C)C(OC2OC(C)CC(N(C)C)C2OC(C)=O)C2(C)CC(C)=C(O2)C1C (stereo not shown) [Compound 773, 2′-O-acetyl-4″,13-Di-O-benzoyl-8,9-Anhydro-pseudoerythromycin A 6,9-hemiketal] | 10 | E (Growth of test organism was inhibited 35% or less.) | 13 | E (Growth of test organism was inhibited 35% or less.) | 15 | E (Growth of test organism was inhibited 35% or less.) | 15 | B (Growth of test organism was inhibited 75% of more and 95% or less.) | 13 | C (Growth of test organism was inhibited 55% or more and 75% or less.) | 12 | E (Growth of test organism was inhibited 35% or less.) | 16 | A (Growth of test organism was inhibited 95% or more.) | 11 | E (Growth of test organism was inhibited 35% or less.) | 15 | A (Growth of test organism was inhibited 95% or more.) | 14 | A (Growth of test organism was inhibited 95% or more.) | Inhibition activity (inhibition ring mm) C. albicans ATCC 64550 GYM ([3]; 10 μg/8 mm disk): 10 mm; Transparency of the inhibition ring C. albicans ATCC 64550 GYM ([3]; 10 μg/8 mm disk): C (Growth of test organism was inhibited 55% or more and 75% or less.)
